# Results as given in US20250064932A1, “GLYCO-ENGINEERED CAR-T CELLS” (VIB VZW, priority 2021, published 2025).
# Like-named read-outs stand apart in the source and are kept apart here.
# Assays:
# human CD8+ T cells = conditions: for T cell proliferation: IL-2
# Description: Human CD8^+ T cells were purified and incubated with human T cell-activator CD3/CD28 dynabeads for T cell expansion and activation, and this in the presence of different cytokine combinations and increasing concentrations of DMSO. In order to evaluate the effect of DMSO on the proliferation of T cells in culture, cells were labeled with Tag-it Violet™ proliferation and cell tracking dye. […] Flow cytometry analysis was performed on multiple days following start up until day 11 in culture in order to evaluate T cell activation and differentiation markers.
# (§1) For human T cell phenotyping, cells were labeled with fluorescent antibodies against human CD8, CD62L and CD45RA (BD Biosciences) and CD3, CD4, CD25, CD69, CD197 (CCR7), TIM-3 (CD366), CD152 (CTLA4) and CD279 (PD-1) (Biolegend). A Fixable dye eFluor™ 780 (eBioscience) was used to evaluate live/dead cells.
# Peripheral blood lymphocytes were prepared by a Ficoll-Paque density centrifugation as described in the instruction manual for Leucosep™ (Greiner bio-one). CD8^+ T cells were isolated by negative selection (MojoSort™ Human CD8 T cell Isolation kit, Biolegend) according to the manufacture's protocol. Cells were cultured in RPMI 1640 medium (Gibco-BRL) supplemented with L-glutamine (0.03%, Gibco), 0.4 mM sodiumpyruvate (Merck Millipore) and 50 μM β-mercapto-ethanol (Sigma Aldrich) and 10% heat-inactivated fetal calf serum (FCS), in 48 well plates (Sarstedt) and stimulated with human anti-CD3/CD28 Dynabeads (1 bead:3 cell ratio) (Thermo Fisher Scientific) for 4 days at 37° C. Prior to cell seeding, Dynabeads and bead-bound cells were removed by separation on a magnet (after transfer to an Eppendorf tube) and the supernatant containing the CD8^+ T cells was collected. Cells were washed twice with PBS before putting them in culture with different cytokine combinations: (1) recombinant human (rh) IL-2 at 50 units/mL (Life Technologies); (2) rhIL-7 at 10 ng/mL (R&D systems) and rhIL-15 at 1 ng/mL (Miltenyi). Cytokines and medium were replaced every 2-3 days. Where indicated, increasing concentrations of DMSO (Sigma) were added as given by % v/v.
# (§2) Human T cells were stained with Tag-it Violet™ Proliferation and Cell Tracking Dye (Biolegend), according to manufacturer's protocol.
# [1] = tested on: human lymphocytes and neutrophils; conditions: up to 1% v/v DMSO, PMA for 4 hours; cited from earlier work
# lymphoma cell = conditions: cited from earlier work
# CD4+ T cell = conditions: cited from earlier work
# [2] = DMSO treated vs untreated, day 11, 1.2% DMSO
# Excerpt for human CD3+ T cells: A protocol for in vitro isolation of CD3^+ T cell population used herein includes stimulation of purified human CD3^+ T cells in the presence of IL-12 and culturing in the presence of either IL-2 or IL-7/-15. This cultivation method provides for CD3^+ T cells populations skewed towards a naive phenotype. […] To this end, we validated the effect of DMSO on the activation and differentiation of CD3^+ T cells in the presence of IL-12 and subsequent culturing with different cytokine combinations.
# We therefore evaluated the impact of increasing DMSO concentrations on the immunophenotype at day 14, and the impact of the highest DMSO concentration (1.2%) on the immunophenotype of CD3^+ T cell (sub)populations at day 13.
# as §1
# Leukocyte-enriched buffy coat samples were obtained from healthy donors attending the Red Cross center after informed consent and ethical committee approval (EC2019-1083). Peripheral blood lymphocytes were prepared by a Ficoll-Paque density centrifugation as described in the instruction manual for Leucosep™ (Greiner bio-one). CD3^+ T cells were isolated by negative selection (MojoSort™ Human CD3 T cell selection kit, Biolegend) according to the manufacture's protocol. Cells were cultured in IMDM+Glutamax medium (Gibco-BRL) supplemented with 10% heat-inactivated fetal calf serum (FCS) and stimulated with Immunocult™ Human CD3/CD28 T-Cell Activator (Stemcell Technologies) (25 μL/10^6 cells) for 3 days at 37° C. in the presence of 10 ng/mL IL-12 (Biolegend). Prior to cell seeding, cells were washed twice with PBS before putting them in culture with different cytokine combinations: (1) recombinant human (rh) IL-2 at 50 units/mL (Miltenyi); (2) rhIL-7 at 10 ng/mL (Miltenyi) and rhIL-15 at 10 ng/mL (Miltenyi). Cytokines and medium were replaced every 2-3 days. Cell densities were maintained between 1×10^6 and 3×10^6 cells/mL. Where indicated, increasing concentrations of DMSO (Sigma) were added as given by % v/v.
# as §2
smiles,measurement,setting,value
"C[S+](C)[O-] [DMSO, Dimethyl sulfoxide]",effect on survival of the cells,human CD8+ T cells,does not have a negative effect on survival
same,survival rate,human CD8+ T cells,small increases in survival rate
same,T cell proliferation,human CD8+ T cells; 0.6% DMSO,still tolerated
same,T cell proliferation,human CD8+ T cells; 1.2% DMSO,marked decrease in T cell proliferation
same,CD8+ T cell differentiation,"human CD8+ T cells; CD8+ T cells purified from the same donor, IL-12 stimulation, IL-7 and IL-15, 1.2% DMSO, day 13",clearly skewed from naïve-like towards a TCM phenotype
same,expression level of CD25,human CD8+ T cells; [2],lower
same,expression of CD69,human CD8+ T cells; [2],higher
same,decrease in proportion of CD8+ T cells expressing TIM-3,"human CD8+ T cells; IL-2, increasing DMSO",~4%
same,proportion of cells expressing PD-1 after stimulation,"human CD8+ T cells; IL-2, increasing DMSO",seems to decrease faster by day 7
same,T cell differentiation,human CD8+ T cells; IL-7 and IL-15,preferentially differentiate towards a TCM phenotype
same,DMSO concentration with inhibitory effect on T cell proliferation,"human CD8+ T cells; IL-7 and IL-15, prolonged culture",≥ 0.6%
same,TIM-3 expression level,"human CD8+ T cells; fluorescence intensity, in the presence of DMSO",markedly reduced
same,frequency of CD25 positive cells,human CD8+ T cells; increasing DMSO (0.1%-1.2%),decreases in time and with increasing DMSO concentration
same,proportion of CD69 positive cells,human CD8+ T cells; increasing DMSO (0.1%-1.2%),increases with increasing concentrations of DMSO
same,T cell differentiation subsets,"human CD8+ T cells; increasing DMSO, most clear with IL-2, day 11",a decrease in naive and effector CD8^+ T cells in favor of an increase in memory T cells
same,"cell surface marker expression (CD25, CD69, PD-1)",human CD3+ T cells; 1.2% DMSO,cell surface marker expression is increased
same,frequency of CD25 and CD69 positive cells,"human CD3+ T cells; 1.2% DMSO, IL-7 and IL-15, day 13",increases in the presence of DMSO
same,CD3+ T cell differentiation,"human CD3+ T cells; 1.2% DMSO, day 13",skews CD3^+ T cell differentiation towards a central memory phenotype
same,proportion of cells expressing PD-1,"human CD3+ T cells; 1.2% DMSO, day 13",seems to slightly increase
same,TCM population of CD8+ T cells,"human CD3+ T cells; 1.2% DMSO, about 20% in the untreated condition",over 80%
same,"expression of activation and exhaustion markers (CD25, CD69, PD-1)",human CD3+ T cells; DMSO up to 0.6%,does not alter the expression of activation and exhaustion markers
same,CD3+ T cell survival and subset distribution,"human CD3+ T cells; human, 13 day, 1.2 % v/v",did not impact CD3^+ T cell survival nor CD4′/CD8′ subset distribution
same,CD3+ T cell survival and proliferation,"human CD3+ T cells; human, 14 day",did not impact CD3^+ T cell survival and proliferation
same,impact on CD4+ T cell differentiation,human CD3+ T cells; increasing DMSO,less pronounced
same,CD4+/CD8+ subset distribution,"human CD3+ T cells; increasing DMSO, day 14",does not have an impact on the subset distribution
same,IFN-γ and TNF-α production in the cytoplasm,[1],did not change IFN-γ and TNF-α production
same,DMSO concentrations at which lymphoma cell death is prevented,lymphoma cell,1-2%
same,"DMSO concentrations that suppress CD4+ T cell activation, cell growth and cytokine secretion",CD4+ T cell,0.1-1%
